Results taken from US12441733B2, “Substituted 2,4-dioxotetrahydropyrimidines as intermediates in the synthesis of bruton's tyrosine kinase inhibitors” (Novartis AG, priority 2018, dated 2025).

Molecular target: T1, IKZF3-GFP (Homo sapiens, UniProt Q96SW2+Q9UKT9)
T1 construct: expressed in transfected cells; host or cells: HEK293A (Invitrogen R70507), lentiviral transduction with pLenti6-IKZF3-GFP-Ires-RFP, blasticidin selection
Test: IKZF3-GFP protein abundance flow cytometry assay in HEK293A cells
Assay type: cell-based
Conditions: HEK293A IKZF3-GFP-iresRFP cells, 24 h; for DC50: GFP signal by flow cytometry; for IKZF3 deg Amax: % protein remaining at maximum degradation
Procedure: BTK-GFP and IKZF3-GFP protein abundance flow cytometry assay in HEK293A cells:
Degradation of BTK or IKZF3 was measured in HEK293A cells (Invitrogen R70507) expressing either BTK-GFP and RFP or IKZF3-GFP and RFP from a stably integrated bicistronic BTK-GFP-iresRFP or IKZF3-GFP-iresRFP construct, respectively. Reduction of the GFP signal measured by flow cytometry served as readout for BTK or IKZF3 degradation after degrader treatment.
By analogy the bicistronic pLenti6-IKZF3-GFP-iresRFP was engineered by gateway cloning of IKZF3 from a pENTR221-IKZF3(STOP-Leu) construct into the previously described pLenti6-DEST-GFP-Ires-RFP vector using the LR Clonase kit (Invitrogen 11791-019) according to the manufacturer's manual. All vectors described have been sequenced for verification.
ii) Engineering of Stably Expressing 293A BTK-GFP-Ires-RFP and IKZF3-GFP-Ires-RFP Sensor Cells
293A BTK-GFP-Ires-RFP and IKZF3-GFP-ires-RFP sensor cells were generated by lentiviral vector transduction using the pLenti6-BTK-GFP-Ires-RFP or pLenti6-IKZF3-GFP-Ires-RFP sensor construct described before. Lentiviral particles were produced in HEK293FT cells (Invitrogen R70007) by co-transfection of 500 ng pLenti6-BTK-GFP-ires-RFP or pLenti6-IKZF3-GFP-Ires-RFP, 500 ng delta8.71 and 200 ng pVSVG diluted in 100 μl OptiMEM serum free medium (Invitrogen #11058-021) that was mixed after 5 min preincubation with 3 μl of Lipofectamine2000 (Invitrogen #11668-019) in 97 μl OptiMEM serum free medium. The mix was incubated for another 20 min at RT and then added on 1 ml of a freshly prepared suspension of HEK293FT cells in a well of a 6-well plate (concentration 1.2×10^6 cells/ml). 1 day after transfection, the medium was replaced with 1.5 ml of complete growth medium (DMEM high Glucose+10% FCS+1% L-Glutamine+1% NEAA+1% NaPyr.). 48 h post transfection supernatant containing viral transducing particles was collected and frozen at −80° C.
Two days before transduction with viral particles 1×10^5 HEK293A cells (Invitrogen R70507) were seeded in 2 ml growth medium in a well of a 6-well plate. Infection was performed with 90 μl of collected supernatant containing viral transducing particles in 1 ml medium including 8 μg/ml polybrene. 24 h post infection, stably transfected cells were selected with blasticidin at a concentration of 8 μg/ml.
Iii) Quantitative BTK-GFP and IKZF3-GFP Abundance Measurements
Stable HEK293A-BTK-GFP-iresRFP cells were maintained in complete growth medium (DMEM high Glucose+10% FCS+1% L-Glutamine+1% NEAA+1% NaPyr.) with passaging performed twice per week. On Day 0, HEK293A-BTK-GFP-iresRFP or HEK293A-IKZF3-GFP-iresRFP and HEK293A-iresRFP cells were seeded at 10,000 cells/well in a 96-well microtiter plate in 260 μl complete medium. On Day 1, cells were treated in duplicate with 10-point 1:3 dilution series of compound using the HP D300 Digital Dispenser (Tecan). DMSO concentrations were normalized across the plate to 0.1%. On Day 2, after 24 h of incubation at 37° C., treatment media was discarded, cells rinsed with 100 μl/well PBS and then detached using 40 μl trypsin/well for 5 min. Trypsin was neutralized with 100 μl/well PBS+20% FCS). Flow cytometry was performed on the samples using the BD FACS CANTO II (Becton Dickinson). Cell identification was then performed using forward (FSC) vs. side scatter (SSC) plots. […] Median GFP values for 5,000 single cells are used to determine BTK levels. Median GFP values from HEK293A-iresRFP are used as a background signal and thus defining 0% BTK signal. Median GFP values from DMSO treated HEK293A-BTK-GFP-iresRFP or HEK293A-IKZF3-GFP-iresRFP are used to define 100% BTK signal for subsequent DC50 curves (concentration at 50% BTK degradation).

T1 sequence (Q9UKT9 whole entry): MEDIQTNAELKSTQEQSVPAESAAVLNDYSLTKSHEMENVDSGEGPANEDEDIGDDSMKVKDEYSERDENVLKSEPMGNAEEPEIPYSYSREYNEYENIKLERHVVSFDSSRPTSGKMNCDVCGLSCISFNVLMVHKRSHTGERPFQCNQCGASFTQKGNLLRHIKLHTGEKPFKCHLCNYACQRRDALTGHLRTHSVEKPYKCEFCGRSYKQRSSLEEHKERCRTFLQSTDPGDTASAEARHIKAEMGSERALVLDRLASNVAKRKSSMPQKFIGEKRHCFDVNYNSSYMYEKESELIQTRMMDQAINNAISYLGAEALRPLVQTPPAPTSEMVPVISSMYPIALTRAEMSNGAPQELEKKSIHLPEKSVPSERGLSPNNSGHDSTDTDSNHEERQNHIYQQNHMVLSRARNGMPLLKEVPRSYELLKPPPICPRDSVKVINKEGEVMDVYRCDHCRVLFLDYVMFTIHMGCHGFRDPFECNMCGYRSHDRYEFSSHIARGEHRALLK
T1 sequence (Q96SW2 whole entry): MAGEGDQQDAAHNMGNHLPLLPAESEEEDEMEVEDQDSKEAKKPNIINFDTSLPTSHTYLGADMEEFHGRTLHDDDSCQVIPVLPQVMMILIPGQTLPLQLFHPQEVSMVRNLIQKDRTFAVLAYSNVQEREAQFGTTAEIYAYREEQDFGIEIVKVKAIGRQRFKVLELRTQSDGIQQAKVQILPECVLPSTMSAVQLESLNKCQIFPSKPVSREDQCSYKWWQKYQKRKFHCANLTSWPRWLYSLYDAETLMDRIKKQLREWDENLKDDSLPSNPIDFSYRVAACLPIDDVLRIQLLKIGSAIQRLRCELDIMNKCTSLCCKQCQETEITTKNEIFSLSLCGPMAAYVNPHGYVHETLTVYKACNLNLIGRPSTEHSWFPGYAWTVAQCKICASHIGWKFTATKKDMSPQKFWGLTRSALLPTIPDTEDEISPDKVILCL
T1 sequence (Q16531 whole entry partner): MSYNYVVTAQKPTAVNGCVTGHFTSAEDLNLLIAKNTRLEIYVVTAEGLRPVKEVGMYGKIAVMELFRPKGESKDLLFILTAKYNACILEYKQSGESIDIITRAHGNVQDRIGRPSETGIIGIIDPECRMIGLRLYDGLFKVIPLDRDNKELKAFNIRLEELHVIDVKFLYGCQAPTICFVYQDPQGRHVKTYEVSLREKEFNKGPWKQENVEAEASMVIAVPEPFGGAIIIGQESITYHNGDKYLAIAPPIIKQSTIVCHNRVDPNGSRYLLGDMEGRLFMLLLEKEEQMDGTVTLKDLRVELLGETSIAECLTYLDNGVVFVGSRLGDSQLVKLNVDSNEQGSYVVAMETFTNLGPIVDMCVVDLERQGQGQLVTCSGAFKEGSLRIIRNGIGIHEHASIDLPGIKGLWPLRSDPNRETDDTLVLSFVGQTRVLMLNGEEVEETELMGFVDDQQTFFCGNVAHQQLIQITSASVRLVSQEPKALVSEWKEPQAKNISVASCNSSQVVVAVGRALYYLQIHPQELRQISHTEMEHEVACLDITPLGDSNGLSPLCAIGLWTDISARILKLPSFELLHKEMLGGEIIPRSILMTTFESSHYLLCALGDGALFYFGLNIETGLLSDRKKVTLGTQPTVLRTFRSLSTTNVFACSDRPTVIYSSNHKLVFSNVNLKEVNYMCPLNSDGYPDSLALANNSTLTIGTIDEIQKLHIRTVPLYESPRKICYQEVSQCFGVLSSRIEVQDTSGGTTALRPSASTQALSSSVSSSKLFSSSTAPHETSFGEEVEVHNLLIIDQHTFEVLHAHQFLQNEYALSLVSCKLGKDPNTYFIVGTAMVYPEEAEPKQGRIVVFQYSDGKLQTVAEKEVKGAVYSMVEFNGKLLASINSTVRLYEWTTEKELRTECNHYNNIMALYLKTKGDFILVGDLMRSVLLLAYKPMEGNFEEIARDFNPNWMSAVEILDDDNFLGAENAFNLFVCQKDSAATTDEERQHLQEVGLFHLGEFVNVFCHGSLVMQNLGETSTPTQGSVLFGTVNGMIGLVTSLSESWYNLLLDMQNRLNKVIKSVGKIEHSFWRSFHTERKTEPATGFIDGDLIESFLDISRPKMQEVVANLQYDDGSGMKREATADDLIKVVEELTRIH

CCOc1ccc(C(=O)N2CCC3(CCN(Cc4ccc(-c5cc6c(-c7cc(F)cc(NC(=O)c8ccc(C(C)(C)O)cc8F)c7C)ncnc6[nH]5)cc4)CC3)CC2)cc1N1CCC(=O)NC1=O [Compound 4, N-(3-(6-(4-((9-(3-(2,4-Dioxotetrahydropyrimidin-1(2H)-yl)-4-ethoxybenzoyl)-3,9-diazaspiro[5.5]undecan-3-yl)methyl)phenyl)-7H-pyrrolo[2,3-d]pyrimidin-4-yl)-5-fluoro-2-methylphenyl)-2-fluoro-4-(2-hydroxypropan-2-yl)benzamide]
DC50: > 1100 nM | IKZF3 deg Amax: 101.3%

Cc1ccc(C(=O)N2CCC3(CCN(CCc4ccc(-c5cc6c(-c7cc(F)cc(NC(=O)c8ccc(C(C)(C)O)cc8F)c7C)ncnc6[nH]5)cc4)CC3)CC2)cc1N1CCC(=O)NC1=O [Compound 5, N-(3-(6-(4-(2-(9-(3-(2,4-Dioxotetrahydropyrimidin-1(2H)-yl)-4-methylbenzoyl)-3,9-diazaspiro[5.5]undecan-3-yl)ethyl)phenyl)-7H-pyrrolo[2,3-d]pyrimidin-4-yl)-5-fluoro-2-methylphenyl)-2-fluoro-4-(2-hydroxypropan-2-yl)benzamide]
DC50: > 370 nM | IKZF3 deg Amax: 103.3%

Cc1c(NC(=O)c2ccc(C(C)(C)O)cc2F)cc(F)cc1-c1ncnc2[nH]c(-c3ccc(COC4CCN(CCC5CCN(C(=O)c6ccc(F)c(N7CCC(=O)NC7=O)c6)CC5)CC4)cc3)cc12 [Compound 6, N-(3-(6-(4-(((1-(2(1-(3-(2,4-dioxotetrahydropyrimidin-1(2H)-yl)-4-fluorobenzoyl)piperidin-4-yl)ethyl)piperidin-4-yl)oxyl)methyl)phenyl)-7H-pyrrolo[2,3-d]pyrimidin-4-yl)-5-fluoro-2-methylphenyl)-2-fluoro-4-(2-hydroxypropan-2-yl)benzamide]
DC50: > 10000 nM | IKZF3 deg Amax: 100.8%

COc1ccc(C(=O)N2CCC(OC3CCN(Cc4ccc(-c5cc6c(-c7cc(F)cc(NC(=O)c8ccc(C(C)(C)O)cc8F)c7C)ncnc6[nH]5)cc4)CC3)CC2)cc1N1CCC(=O)NC1=O [Compound 8, N-(3-(6-(4-((4-((1-(3-(2,4-dioxotetrahydropyrimidin-1(2H)-yl)-4-methoxybenzoyl)piperidin-4-yl)oxyl)piperidin-1-yl)methyl)phenyl)-7H-pyrrolo[2,3-d]pyrimidin-4-yl)-5-fluoro-2-methylphenyl)-2-fluoro-4-(2-hydroxypropan-2-yl)benzamide]
DC50: > 2600 nM | IKZF3 deg Amax: 103.3%

COc1ccc(C(=O)N2CCC3(CCN(Cc4ccc(-c5cc6c(-c7cc(F)cc(NC(=O)c8ccc(C(C)(C)O)cc8F)c7C)ncnc6[nH]5)cc4)CC3)CC2)cc1N1CCC(=O)NC1=O [Compound 9, N-(3-(6-(4-((9-(3-(2,4-Dioxotetrahydropyrimidin-1(2H)-yl)-4-methoxybenzoyl)-3,9-diazaspiro[5.5]undecan-3-yl)methyl)phenyl)-7H-pyrrolo[2.3-d]pyrimidin-4-yl)-5-fluoro-2-methylphenyl)-2-fluoro-4-(2-hydroxypropan-2-yl)benzamide]
DC50: > 7800 nM | IKZF3 deg Amax: 99.1%

Cc1c(NC(=O)c2ccc(C(C)(C)O)cc2F)cc(F)cc1-c1ncnc2[nH]c(-c3ccc(CCN4CCC5(CC4)CCN(C(=O)c4cccc(N6CCC(=O)NC6=O)c4)CC5)cc3)cc12 [Compound 12, N-(3-(6-(4-(2-(9-(3-(2,4-Dioxotetrahydropyrimidin-1(2H)-yl)benzoyl)-3,9-diazaspiro[5,5]undecan-3-yl)ethyl)phenyl)-7H-pyrrolo[2,3-d]pyrimidin-4-yl)-5-fluoro-2-methylphenyl)-2-fluoro-4-(2-hydroxypropan-2-yl)benzamide]
DC50: > 1100 nM | IKZF3 deg Amax: 100.4%
